The results in this text go back to patent US7642270B2, “5-oxo-5,8-dihydro-pyrido-pyrimidine as inhibitors of c-fms kinase” (Janssen Pharmaceutica N.V., priority 2005, dated 2010).

In the first experiment the target is c-fms (Homo sapiens, UniProt P07333). As to the kind of experiment: c-fms autophosphorylation, fluorescence polarization competition immunoassay. In kind it is biochemical.
Sequence of c-fms (P07333 20-972): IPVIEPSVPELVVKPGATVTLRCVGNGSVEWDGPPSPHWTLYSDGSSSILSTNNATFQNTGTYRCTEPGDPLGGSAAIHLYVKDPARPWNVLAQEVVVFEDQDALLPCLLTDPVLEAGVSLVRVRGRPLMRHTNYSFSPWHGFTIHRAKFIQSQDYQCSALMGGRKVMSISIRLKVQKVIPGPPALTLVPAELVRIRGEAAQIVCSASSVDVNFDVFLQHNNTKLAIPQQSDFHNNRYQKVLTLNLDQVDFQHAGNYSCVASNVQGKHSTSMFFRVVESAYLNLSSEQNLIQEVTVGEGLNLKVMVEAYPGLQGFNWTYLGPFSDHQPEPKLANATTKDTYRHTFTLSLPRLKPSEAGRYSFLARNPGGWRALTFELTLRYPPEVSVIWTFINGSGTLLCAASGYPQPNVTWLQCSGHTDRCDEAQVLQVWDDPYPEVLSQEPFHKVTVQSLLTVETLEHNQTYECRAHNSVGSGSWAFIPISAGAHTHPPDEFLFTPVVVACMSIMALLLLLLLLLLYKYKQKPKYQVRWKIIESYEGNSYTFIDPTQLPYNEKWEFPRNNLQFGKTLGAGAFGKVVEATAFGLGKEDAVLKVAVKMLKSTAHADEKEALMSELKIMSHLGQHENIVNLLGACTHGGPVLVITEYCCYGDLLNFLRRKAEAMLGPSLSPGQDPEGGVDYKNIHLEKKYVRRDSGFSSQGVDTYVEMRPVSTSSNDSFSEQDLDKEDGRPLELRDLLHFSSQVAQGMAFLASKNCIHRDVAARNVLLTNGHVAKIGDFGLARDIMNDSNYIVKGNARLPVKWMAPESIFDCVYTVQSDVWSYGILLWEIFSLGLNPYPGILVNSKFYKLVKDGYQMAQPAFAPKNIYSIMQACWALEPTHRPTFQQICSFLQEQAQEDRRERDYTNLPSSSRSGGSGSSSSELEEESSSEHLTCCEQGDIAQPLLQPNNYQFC
Conditions: not given
Here is the method:
Autophosphorylation, Fluorescence Polarization Competition Immunoassay
The assay buffer used was 100 mM 4-(2-hydroxyethyl)piperazine 1-ethanesulfonic acid (HEPES), pH 7.5, 1 mM 1,4-dithio-DL-threitol (DTT), 0.01% (v/v) Tween-20. Compounds were diluted in assay buffer containing 4% dimethylsulfoxide (DMSO) just prior to the assay. […] The kinase reaction was initiated by adding 2 μL of 5 mM ATP (Sigma) in assay buffer. The final concentrations in the assay were 10 nM c-fms, 1 mM ATP, 5 mM MgCl2, 2% DMSO. Control reactions were ran in each plate: in positive and negative control wells, assay buffer (made 4% in DMSO) was substituted for the compound; in addition, positive control wells received 1.2 μL of 50 mM ethylenediaminetetraaceticacid (EDTA).
The plates were incubated at room temperature for 45 min. At the end of the incubation, the reaction was quenched with 1.2 μL of 50 mM EDTA (EDTA was not added to the positive control wells at this point; see above). Following a 5-min incubation, each well received 10 μL of a 1:1:3 mixture of anti-phosphotyrosine antibody, 10×, PTK green tracer, 10× (vortexed), FP dilution buffer, respectively (all from PanVera, cat. # P2837). The plate was covered, incubated for 30 min at room temperature and the fluorescence polarization was read on the Analyst.
The IC50 values shown in Table 1 are averages of three independent measurements.
In general terms: Polarisation of emitted light reports the rotation of a fluorescent probe.
On to `NC(=O)c1cn(-c2ccc3c(c2)CCC3)c2nc(Nc3ccc(CN4CCOCC4)cc3)ncc2c1=O` [Cpd 69, 8-Indan-5-yl-2-(4-morpholin-4-ylmethyl-phenylamino)-5-oxo-5,8-dihydro-pyrido[2,3-d]pyrimidine-6-carboxylic acid amide], for which the IC50 – broadly, the concentration that gives 50% inhibition – is 18 nM.

The experiment is the same for the next values; noted with them: 10 nM c-fms, 1 mM ATP, 5 mM MgCl2, 45 min room temperature; averages of three independent measurements; read-out: c-fms Autophosphorylation IC50.
As to `CCNC(=O)c1cn(-c2ccc3c(c2)CCC3)c2nc(Nc3cccc(N4CCN(C)CC4)c3)ncc2c1=O` [Cpd 39, 8-Indan-5-yl-2-[3-(4-methyl-piperazin-1-yl)-phenylamino]-5-oxo-5,8-dihydro-pyrido[2,3-d]pyrimidine-6-carboxylic acid ethyl amide], the concentration for half-maximal inhibition (IC50) came to 13 nM.

Consider `CNC(=O)c1cn(-c2ccc3c(c2)CCC3)c2nc(Nc3ccc(N4CCNCC4)cc3)ncc2c1=O` [Cpd 41, 8-indan-5-yl-5-oxo-2-(4-piperazin-1-yl-phenylamino)-5,8-dihydro-pyrido[2,3-d]pyrimidine-6-carboxylic acid methyl amide], for which the IC50 stood at 11 nM.

Take `CCNC(=O)c1cn(-c2ccc3c(c2)CCC3)c2nc(Nc3ccc(N4CCNCC4)cc3)ncc2c1=O` [Cpd 42, 8-indan-5-yl-5-oxo-2-(4-piperazin-1-yl-phenylamino)-5,8-dihydro-pyrido[2,3-d]pyrimidine-6-carboxylic acid ethyl amide]: the 50% inhibitory concentration (IC50) came out at 16 nM.

In the case of `CCNC(=O)c1cn(-c2ccc3c(c2)CCC3)c2nc(Nc3ccc(N4CC(C)NC(C)C4)cc3)ncc2c1=O` (stereo not drawn) [Cpd 45, 2-[4-(3,5-Dimethyl-piperazin-1-yl)-phenylamino]-8-indan-5-yl-5-oxo-5,8-dihydro-pyrido[2,3-d]pyrimidine-6-carboxylic acid ethyl amide], the IC50 was 12 nM.

`CCNC(=O)c1cn(-c2ccc3c(c2)CCC3)c2nc(Nc3ccc(CCN4CCN(C)CC4)cc3)ncc2c1=O` [Cpd 48, 8-Indan-5-yl-2-{4-[2-(4-methyl-piperazin-1-yl)-ethyl]-phenylamino}-5-oxo-5,8-dihydro-pyrido[2,3-d]pyrimidine-6-carboxylic acid ethyl amide]: the IC50 amounted to 32 nM.

On to `CCNC(=O)c1cn(-c2ccc3c(c2)CCC3)c2nc(Nc3ccc(C4CCNCC4)cc3)ncc2c1=O` [Cpd 51, 8-Indan-5-yl-5-oxo-2-(4-piperidin-4-yl-phenylamino)-5,8-dihydro-pyrido[2,3-d]pyrimidine-6-carboxylic acid ethyl amide], for which the IC50 was determined as 25 nM.

On to `NC(=O)c1cn(C2CCCCC2)c2nc(Nc3ccc(CCN4CCOCC4)cc3)ncc2c1=O` [Cpd 57, 8-Cyclohexyl-2-[4-(2-morpholin-4-yl-ethyl)-phenylamino]-5-oxo-5,8-dihydro-pyrido[2,3-d]pyrimidine-6-carboxylic acid amide], for which the half-inhibitory concentration (IC50) came out at 26 nM.

Consider `CNC(=O)c1cn(C2CCCCC2)c2nc(Nc3ccc(CCN4CCOCC4)cc3)ncc2c1=O` [Cpd 58, 8-Cyclohexyl-2-[4-(2-morpholin-4-yl-ethyl)-phenylamino]-5-oxo-5,8-dihydro-pyrido[2,3-d]pyrimidine-6-carboxylic acid methyl amide], for which the half-maximal inhibitory concentration (IC50) came out at 120 nM.

On to `CCNC(=O)c1cn(C2CCCCC2)c2nc(Nc3ccc(CCN4CCOCC4)cc3)ncc2c1=O` [Cpd 59, 8-Cyclohexyl-2-[4-(2-morpholin-4-yl-ethyl)-phenylamino]-5-oxo-5,8-dihydro-pyrido[2,3-d]pyrimidine-6-carboxylic acid ethyl amide], for which the IC50 was determined as 190 nM.

In the case of `CN1CCN(c2ccc(Nc3ncc4c(=O)c(C(N)=O)cn(C5CCCCC5)c4n3)cc2)CC1` [Cpd 60, 8-Cyclohexyl-2-[4-(4-methyl-piperazin-1-yl)-phenylamino]-5-oxo-5,8-dihydro-pyrido[2,3-d]pyrimidine-6-carboxylic acid amide], the IC50 amounted to 35 nM.

Regarding `CNC(=O)c1cn(C2CCCCC2)c2nc(Nc3ccc(N4CCN(C)CC4)cc3)ncc2c1=O` [Cpd 61, 8-Cyclohexyl-2-[4-(4-methyl-piperazin-1-yl)-phenylamino]-5-oxo-5,8-dihydro-pyrido[2,3-d]pyrimidine-6-carboxylic acid methyl amide], the 50% inhibitory concentration (IC50) stood at 160 nM.

With `CCNC(=O)c1cn(C2CCCCC2)c2nc(Nc3ccc(N4CCN(C)CC4)cc3)ncc2c1=O` [Cpd 62, 8-Cyclohexyl-2-[4-(4-methyl-piperazin-1-yl)-phenylamino]-5-oxo-5,8-dihydro-pyrido[2,3-d]pyrimidine-6-carboxylic acid ethyl amide], the concentration for half-maximal inhibition (IC50) amounted to 190 nM.

For `CN1CCN(c2cccc(Nc3ncc4c(=O)c(C(N)=O)cn(C5CCCCC5)c4n3)c2)CC1` [Cpd 63, 8-Cyclohexyl-2-[3-(4-methyl-piperazin-1-yl)-phenylamino]-5-oxo-5,8-dihydro-pyrido[2,3-d]pyrimidine-6-carboxylic acid amide], the IC50 came to 21 nM.

Consider `CNC(=O)c1cn(C2CCCCC2)c2nc(Nc3cccc(N4CCN(C)CC4)c3)ncc2c1=O` [Cpd 64, 8-Cyclohexyl-2-[3-(4-methyl-piperazin-1-yl)-phenylamino]-5-oxo-5,8-dihydro-pyrido[2,3-d]pyrimidine-6-carboxylic acid methyl amide], for which the half-maximal inhibitory concentration (IC50) amounted to 50 nM.

`CCNC(=O)c1cn(C2CCCCC2)c2nc(Nc3cccc(N4CCN(C)CC4)c3)ncc2c1=O` [Cpd 65, 8-Cyclohexyl-2-[3-(4-methyl-piperazin-1-yl)-phenylamino]-5-oxo-5,8-dihydro-pyrido[2,3-d]pyrimidine-6-carboxylic acid ethyl amide]: the IC50 was 110 nM.

For the molecule `CC(C)NS(=O)(=O)CCc1ccc(Nc2ncc3c(=O)c(C(N)=O)cn(C4CCCCC4)c3n2)cc1` [Cpd 66, 8-Cyclohexyl-2-[4-(2-isopropylsulfamoyl-ethyl)-phenylamino]-5-oxo-5,8-dihydro-pyrido[2,3-d]pyrimidine-6-carboxylic acid amide], the IC50 came out at 120 nM.

In the case of `NC(=O)c1cn(C2CCCCC2)c2nc(Nc3ccc(CCS(=O)(=O)N4CCOCC4)cc3)ncc2c1=O` [Cpd 67, 8-Cyclohexyl-2-{4-[2-(morpholine-4-sulfonyl)-ethyl]-phenylamino}-5-oxo-5,8-dihydro-pyrido[2,3-d]pyrimidine-6-carboxylic acid amide], the concentration for half-maximal inhibition (IC50) is 120 nM.

For `CN(C)CC(=O)N1CCC(c2ccc(Nc3ncc4c(=O)c(C(N)=O)cn(C5CCCCC5)c4n3)cc2)CC1` [Cpd 68, 8-Cyclohexyl-2-{4-[1-(2-dimethylamino-acetyl)-piperidin-4-yl]-phenylamino}-5-oxo-5,8-dihydro-pyrido[2,3-d]pyrimidine-6-carboxylic acid amide], the concentration for half-maximal inhibition (IC50) is 130 nM.

Regarding `CN(C)CC(=O)N1CCC(c2ccc(Nc3ncc4c(=O)c(C(N)=O)cn(-c5ccc6c(c5)CCC6)c4n3)cc2)CC1` [Cpd 70, 2-{4-[1-(2-Dimethylamino-acetyl)-piperidin-4-yl]-phenylamino}-8-indan-5-yl-5-oxo-5,8-dihydro-pyrido[2,3-d]pyrimidine-6-carboxylic acid amide], the IC50 is 1100 nM.

For `CN(C)CC(=O)N1CCC(c2cccc(Nc3ncc4c(=O)c(C(N)=O)cn(-c5ccc6c(c5)CCC6)c4n3)c2)CC1` [Cpd 71, 2-{3-[1-(2-Dimethylamino-acetyl)-piperidin-4-yl]-phenylamino}-8-indan-5-yl-5-oxo-5,8-dihydro-pyrido[2,3-d]pyrimidine-6-carboxylic acid amide], the half-maximal inhibitory concentration (IC50) amounted to 7400 nM.

For the molecule `CN1CCN(CC(=O)N2CCC(c3ccc(Nc4ncc5c(=O)c(C(N)=O)cn(-c6ccc7c(c6)CCC7)c5n4)cc3)CC2)CC1` [Cpd 72, 8-Indan-5-yl-2-(4-{1-[2-(4-methyl-piperazin-1-yl)-acetyl]-piperidin-4-yl}-phenylamino)-5-oxo-5,8-dihydro-pyrido[2,3-d]pyrimidine-6-carboxylic acid amide], the 50% inhibitory concentration (IC50) was determined as 4100 nM.

In the case of `CN1CCN(CC(=O)N2CCC(c3cccc(Nc4ncc5c(=O)c(C(N)=O)cn(-c6ccc7c(c6)CCC7)c5n4)c3)CC2)CC1` [Cpd 73, 8-Indan-5-yl-2-(3-{1-[2-(4-methyl-piperazin-1-yl)-acetyl]-piperidin-4-yl}-phenylamino)-5-oxo-5,8-dihydro-pyrido[2,3-d]pyrimidine-6-carboxylic acid amide], the IC50 is greater than 1000 nM.

Take `CN(C)Cc1cccc(Nc2ncc3c(=O)c(C(N)=O)cn(-c4ccc5c(c4)CCC5)c3n2)c1` [Cpd 76, 2-(3-Dimethylaminomethyl-phenylamino)-8-indan-5-yl-5-oxo-5,8-dihydro-pyrido[2,3-d]pyrimidine-6-carboxylic acid amide]: the IC50 worked out at 18 nM.

Consider `CNC(=O)c1cn(-c2ccc3c(c2)CCC3)c2nc(Nc3cccc(CN(C)C)c3)ncc2c1=O` [Cpd 77, 2-(3-Dimethylaminomethyl-phenylamino)-8-indan-5-yl-5-oxo-5,8-dihydro-pyrido[2,3-d]pyrimidine-6-carboxylic acid methylamide], for which the IC50 was found to be 150 nM.

On to `CCNC(=O)c1cn(-c2ccc3c(c2)CCC3)c2nc(Nc3cccc(CN(C)C)c3)ncc2c1=O` [Cpd 78, 2-(3-Dimethylaminomethyl-phenylamino)-8-indan-5-yl-5-oxo-5,8-dihydro-pyrido[2,3-d]pyrimidine-6-carboxylic acid ethylamide], for which the 50% inhibitory concentration (IC50) turned out to be 140 nM.

For the molecule `CN(C)C(=O)c1cccc(Nc2ncc3c(=O)c(C(N)=O)cn(-c4ccc5c(c4)CCC5)c3n2)c1` [Cpd 79, 2-(3-Dimethylcarbamoyl-phenylamino)-8-indan-5-yl-5-oxo-5,8-dihydro-pyrido[2,3-d]pyrimidine-6-carboxylic acid amide], the IC50 was found to be 62 nM.
